Experiments:
[1] = system: schistosomes (Schistosoma mansoni); experiment: Number of schistosomes in vivo (Experimental Example 1); settings: infected BALB/c mice, oral, administered on Days 14 and 15 after the infection, counted on Week 6 after the infection
Protocol: 100 μl of the antischistosomal agent of the present invention were orally administered to mice (BALB/c mice, 5-week-old) infected with schistosomes (Schistosoma mansoni) in accordance with a drug dosage regimen of FIG. 2. As a control, 100 μl of olive oil was administered. On Week 6 after the infection, the mice were sacrificed with an overdose of anesthetic, and the number of schistosomes recovered was counted under a microscope.

[2] = system: schistosomes (Schistosoma mansoni); experiment: Macroscopic findings on liver lesions in schistosome-infected mice (Experimental Example 3); assay type: in vivo; settings: infected BALB/c mice, viscera observed macroscopically
[3] = system: schistosomes (Schistosoma mansoni); experiment: Number of schistosomes and number of eggs produced per adult female schistosome (Experimental Example 2); assay type: in vivo; settings: infected BALB/c mice, oral, measured on Week 9
Protocol: 100 μl of the antischistosomal agent of the present invention were orally administered to mice (BALB/c mice, 5-week-old) infected with schistosomes (Schistosoma mansoni) in accordance with a drug dosage regimen of FIG. 4. As a control, 100 μl of olive oil was administered. On Week 9 after the infection, the mice were sacrificed with an overdose of anesthetic, and the number of schistosomes recovered and the number of eggs produced per adult female schistosome were measured. The number of schistosomes was measured in the same manner as in Experimental Example 1, and the number of eggs produced was also counted under a microscope.

immature schistosomes = settings: as reported in the literature (Non Patent Literature 1); cited from earlier work
[4] = administration on each of Weeks 5 to 7 after the infection

SMILES	number of schistosomes reduced as compared to the olive oil administration group [1]	liver lesions due to eggs of schistosomes (macroscopic) ([2]; administered on Week 5 after the infection)	enlargement of spleen [2]	number of eggs produced reduced ([3]; administration on Week 5 only after the infection)	number of eggs produced per adult female schistosome reduced as compared to the olive oil administration group [3, 4]	number of schistosomes as compared to the olive oil administration group [3, 4]	effect on schistosomes at the immature stage (immature schistosomes)
C1CCCCCC2(CCCCC1)OOCCCOO2 [antischistosomal agent, 1,2,6,7-tetraoxaspiro[7.11]nonadecane]	86%	few liver lesions	inhibited	87%	98%	not significantly reduced	–
O=C(C1CCCCC1)N1CC(=O)N2CCc3ccccc3C2C1 (stereo not shown) [praziquantel]	–	–	–	–	–	–	not effective

— patent US8927596B2, “Antischistosomal agent” (National University Corporation Okayama University, priority 2008, dated 2015)
